Several values for one entry are separate records, joined by “and”; a condition that tells them apart may be missing. Identical values can stand only once. Bridge positions count the residues as written; N and C are the ends. Peptide text beside a SMILES is read from it.
How the values were obtained:
[1] = tested on: COL1A1 mRNA in primary murine skin fibroblasts; experiment: COL1A1 mRNA quantification by RT-PCR; type: cell-based
Protocol: Insulin promotes wound healing and overall skin health by affecting a number of processes, including cell proliferation, cell migration, and the production and secretion of ECM components, particularly type I collagen. We therefore assessed the ability of P12-3A to influence these processes in cultured skin fibroblasts and keratinocytes. To that end, primary mouse skin fibroblasts were grown for 4 d in multiple concentrations of insulin in the presence or absence of P12-3A, and insulin concentration over time was monitored by ELISA. […] Finally, the effects of P12-3A on collagen production in were assessed at both the transcriptional and the posttranslational level in confluent monolayers of fibroblasts. After 4 d of treatment with P12-3A (100 μM), mRNA levels for the major form of collagen, alpha-1 type I collagen (COL1A1), were quantified by RT-PCR and found to be increased to ~2.6 times the levels of untreated cells (Fig 4C). To assess overall levels of collagen production and secretion, we quantified levels of hydroxyproline, a modified amino acid present almost exclusively in collagen proteins. […] Western blotting also confirmed that mature, cell-associated collagen levels were increased in the presence of P12-3A (Fig 4E).
Fig 4 Effects of P12-3A on cultured skin cells. A, Insulin concentrations as a function of time in logarithmically growing primary murine skin fibroblasts in the absence or presence of P12-3A (100 μM). […] Data are mean ± SEM of 4 independent replications. *P<0.05, **P<0.01. B, Proliferation of cells in the absence or presence of P12-3A (100 μM). Data are mean ± SEM of 6 independent replications. […] C,D,E, P12-3A (100 μM) potentiates insulin-induced collagen production in skin fibroblasts. Collagen production was assessed by COL1A1 mRNA levels (C), levels of hydroxyproline secreted into the medium (D), and cell-associated mature alpha-1 type I collagen levels detected by Western blotting (E). Data are mean ± SD of 4 independent replications. *P<0.05, **P<0.01. […] Migration of HaCaT cells 48 h after induction of a scratch wound in the presence of the indicated quantities of insulin and/or P12-3A (100 μM). Data are mean ± SEM of 6 independent replications. *P<0.05, **P<0.01.
RNA was extracted from freshly lysed cells, reverse transcribed and amplified using the Ambion® Fast SYBR® Green Cells-to-CT™ Kit according to manufacturer’s recommendations (Thermo Fisher Scientific, Waltham, MA, USA). The quantitative real-time PCR reaction was conducted using a 7500 real-time PCR system and analyzed using System SDS software v2.0.5 (Applied Biosystems). Murine COL1A1 mRNA was detected using the following primers (forward: 5’-[…] and reverse: 5’ […]). Fold change differences between samples were determined using the comparative Ct (ΔΔCt) method, normalized to internal standards detected with the SYBR® Green Cells-to-CT™ Control Kit according to manufacturer’s recommendations (Thermo Fisher Scientific, Waltham, MA, USA) calculated by 2^-ΔΔCt.

cultured skin cells = experiment: Toxicity in cell culture experiments; type: cell-based
Text: Although a variety of potent and selective IDE inhibitors have been developed, current inhibitors are difficult to synthesize, expensive to generate and/or contain chemical moieties or constituents with established or undetermined potential for toxicity. Due to these and other considerations, existing IDE inhibitors are poorly suited for topical applications. To overcome these limitations, in the present study we aimed to develop peptidic inhibitors of IDE suitable for use in wound healing or cosmetic applications. […] To that end, we used phage display technology to select for a range of peptides that bind to IDE with strong affinity, which were then screened for resistance to degradation by IDE.

[2] = P12-3A 100 uM, individual replicates

**Q.** For CC(C)C[C@H](NC(=O)[C@H](CO)NC(=O)[C@@H](N)CCC(N)=O)C(=O)N1CCC[C@H]1C(=O)N[C@@H](Cc1c[nH]c2ccccc12)C(=O)N[C@H]1CSSC[C@@H](C(=O)N[C@H](C(=O)N[C@H](C(N)=O)[C@@H](C)O)C(C)C)NC(=O)[C@H](Cc2c[nH]cn2)NC(=O)[C@@H]2CCCN2C(=O)[C@H](Cc2ccc(O)cc2)NC1=O [P12-3A] (H-QSLPWCYPHCVT-NH2; disulfide 6-10 (inferred)), which “COL1A1 mRNA levels” value ([1]; 100 μM P12-3A, 4 d, confluent monolayers) is on record?
**A.** Its value is ~ 2.6 times the levels of untreated cells.

**Q.** And the “2^(-DCt), COL1A1 mRNA, Mean” value ([1]; P12-3A 100 uM, N 4)?
**A.** The value was 0.490.

**Q.** And the “DCt (COL1A1 mRNA vs internal standard ß-actin), Mean” value ([1]; P12-3A 100 uM, N 4)?
**A.** Its value is 1.082.

**Q.** What about the “2^(-DCt), COL1A1 mRNA” value [1, 2] of the same molecule?
**A.** The value was 0.454 and 0.570 and 0.306 and 0.629.

**Q.** And the “DCt (COL1A1 mRNA vs internal standard ß-actin)” value [1, 2]?
**A.** Its value is 1.14 and 0.81 and 1.71 and 0.67.

**Q.** What about the “COL1A1 mRNA, normalized, Mean” value ([1]; P12-3A 100 uM, normalized to control mean (1.000), N 4) of the same molecule?
**A.** The value was 2.644.

**Q.** What about the “COL1A1 mRNA, normalized” value ([1]; P12-3A 100 uM, normalized to control mean (1.000), individual replicates) of the same molecule?
**A.** Its value is 2.451 and 3.081 and 1.651 and 3.395.

**Q.** What about the “Ct, COL1A1 mRNA, Mean” value ([1]; P12-3A 100 uM, raw Ct, N 4) of the same molecule?
**A.** Its value is 21.783.

**Q.** And the “Ct, COL1A1 mRNA” value ([1]; P12-3A 100 uM, raw Ct, individual replicates)?
**A.** Its value is 22.07 and 21.23 and 21.93 and 21.9.

**Q.** And the “toxicity in cell culture experiments” value (cultured skin cells)?
**A.** Its value is “no evidence of toxicity”.
